In patent US20050214738A1, “Conditional allele system” (priority 2003, published 2005):
Where “and” joins values, the source holds several entries; their conditions need not be identical. Identical values can stand only once.

Assays:
KLF = biological target: T1, KLF (Homo sapiens, UniProt P42345+P62942, T2098L/W2101F); assay: SeAP transcriptional switch assay, FRB mutant KLF; format: cell-based; conditions: double mutant
T1 construct: The minimal FRB domain comprises amino acids 2025-2114 of human mTor; expressed in transfected cells; host or cells: COS1 cells
Description: (§1) Drug efficacy was determined in a three-plasmid transcriptional switch reporter assay. ˜106 COS1 cells were coelectroporated with 2 μg of the DNA binding construct pBJ5-Gal4-FKBP(3), 2 μg pBJ5-VP16 (or the relevant mutant FRB) and 2 μg of the Gal4-SeAP reporter. Electroporation details are available upon request. Cells were immediately aliquoted to 2 or 3×96 well plates with flat bottoms. After 24 hours incubation media was supplemented with a rapalog in triplicate and in serial two fold dilutions. Following 24 hours further incubation, cells with media were wrapped carefully in plastic wrap and heated to 65° C. for two hours to inactivate endogenous phosphatases. 50 μL of media was transferred to a black 96 well plate (Costar 3915) and supplemented with 1 mM methylumbelliferrylphosphate (Sigma, St. Louis, Mo.) in 1M diethanolamine (pH 10.0 with carbonate). After 16 hours incubation at 37° C. SeAP activity was measured by fluorescence with a Spectamax M2 fluorometer (Molecular Devices, Sunnyvale, Calif.) with transmission set at 355 nm and emmission set at 460 nm. Data was analysed with Softmax Pro (Molecular Devices), Microsoft Excel and Prism 3 (GraphPad Software).

FRB* = biological target: T2, FRB* (Homo sapiens, UniProt P42345+P62942, K2095P/T2098L/W2101F); assay: SeAP reporter assay, dimerization of FRB*-VP16 to FKBP3-GAL4DBD in COS-1 cells; format: cell-based
T2 construct: The minimal FRB domain comprises amino acids 2025-2114 of human mTor; expressed in transfected cells; host or cells: COS-1 cells
Text: (§2) Transcription activation by recruitment of chimeric transcriptional activation and DNA binding domains is described. COS-1 cells were electroporated with […] each of the following expression plasmids (Ho, S. N., Biggar, S. R., Spencer, D. M., Schreiber, S. L., and Crabtree, G. R. “Dimeric ligands define a role for transcriptional activation domains in reinitiation.” (1996) Nature 382, 822-826): pG5IL2SX (drives transcription of bacterial secreted alkaline phosphatase (SeAP) through GAL4 DNA binding […] elements), pBJ5-GF3E (which expresses the GAL4 DNA binding domain fused to three copies of human FKBP12), and pBJ5-FRBVP. (which expresses a FRB fusion with the Herpes Simplex Virus VP16 Activation domain) A FRB*-VP16 fusion protein which consists of modified FRB protein fused to the VP16 activation domain was also used selectively. Transfected cells were distributed equally to 96 well plates and were incubated at 37° C. for 24 to 36 hours before media was supplemented with drug in a dilution curve in which each point is represented in quadruplicate. Cells were incubated at 37° C. for an additional 24 hours followed by a 2-hour treatment at 65° C. to inactivate endogenous phosphatases. Each well was supplemented with 100μL of 1 mM methylumbelliferylphosphate dissolved in 2 M diethanolamine buffered to pH 10.0 with carbonate and incubated at 37° C. for 16 hours. Fluorescence was measured with a Fluoroscan (ICN) plate reader at 355 nm transmission and 455 nm emission using Deltasoft software.
(§3) Drug efficacy was determined in a three-plasmid transcriptional switch reporter assay. ˜106 COS1 cells were coelectroporated with 2 μg of the DNA binding construct pBJ5-Gal4-FKBP(3), 2 μg pBJ5-VP16 (or the relevant mutant FRB) and 2 μg of the Gal4-SeAP reporter. Electroporation details are available upon request. […] SeAP activity was measured by fluorescence with a Spectamax M2 fluorometer (Molecular Devices, Sunnyvale, Calif.) with transmission set at 355 nm and emmission set at 460 nm. Data was analysed with Softmax Pro (Molecular Devices), Microsoft Excel and Prism 3 (GraphPad Software).

GSK-3βFRB* = GSK-3βFRB* (UniProt P26883+P42345, K2095P/T2098L/W2101F); assay: Inducible stabilization of GSK-3βFRB* in knock-in MEFs (Western blot); format: cell-based, mouse; parameters: The minimal FRB domain comprises amino acids 2025-2114 of human mTor; endogenous in cells; host or cells: MEFs from GSK-3β^FRB* knock-in mice (fusion expressed from the targeted endogenous locus)
Description: MEFs cell lines were prepared from E14.5-E16.5 embryos of indicated genotypes by eviscerating the embryos in HBSS, treating the remaining tissue with 0.2% collagenase and trypsin, and plating the cells in DMEM containing 10% FCS, antibiotics, and 0.1 mM β-mercaptoethanol. Once established, the MEFs were cultured using standard techniques and treated with various small molecules as indicated.
Western Blot analysis was carried out using cell lysates prepared in RIPA buffer (10 mM Tris pH 7.2, 150 mM NaCl, 0.1% SDS, 1% Triton X-100, 1% deoxycholate, 5 mM EDTA, protease inhibitor cocktail (Invitrogen Life Technologies)) and then separated using standard SDS/PAGE before being transferred to PVDF (Millipore) using standard Western blotting procedures. The anti-GSK-3β antibody, used at 1:2500, the anti-HSP-90 antibody, 1:2500, and the anti-FKBP12 antibody, 1:2500, were purchased from BD Transduction Labs. The anti-β-catenin antibody, 1:2000, and anti-HSP-70 antibody, 1:1000 were purchased from Santa Cruz Biotechnology. […] In all cases, Western blots were incubated overnight with the appropriate primary antibodies in TBST (10 mM Tris 8.0, 150 mM NaCl, 0.1% Tween-20) containing 10% dry milk, and then washed 3 times with TBST. The blots were subsequently incubated for 30 minutes with HRP-conjugated secondary antibodies from Jackson Immunoresearch, washed 3 more times with TBST, and then developed using standard ECL reagents (Amersham Biosciences) and Kodak XAR film.

KLW = biological target: T3, KLW (Homo sapiens, UniProt P42345+P62942, T2098L); assay: SeAP transcriptional switch assay, FRB mutant KLW; format: cell-based
T3 construct: The minimal FRB domain comprises amino acids 2025-2114 of human mTor; expressed in transfected cells; host or cells: COS1 cells
Description: as §1

embryos = assay: Overt effects on mother and embryos after IP injection of pregnant mice; format: in vivo, mouse; conditions: 200 mg/kg/day, 3 IP injections every 12 hours, E10.0 to E11.5
Description: GSK-3β^+/FRB* mice were intercrossed and the date of vaginal plug observation was set as E0.5. At E9.5, the stage of embryonic development was confirmed by ultrasonography (Chang, C. P. et al. “Sonographic Staging of the Developmental Status of Mouse Embryos in Utero.” (2003) Published in Genesis 36, 7-11) and mice were weighed. Drug administration commenced at E10.0. […] 100 μL was immediately injected intraperitoneally (IP) to pregnant females with injections repeated twice more at 12 hour intervals to E11.5 when mice were sacrificed, and embryos and organs were dissected and frozen in […]. Tissues anterior to the embryonic forelimbs of individual embryos were used for preparation of protein extracts with the remainder used to determine the concentration of drug and for genotyping.

FRB = biological target: T4, FRB (Homo sapiens, UniProt P42345+P62942); assay: SeAP reporter assay, dimerization of FRB-VP16 to FKBP3-GAL4DBD in COS-1 cells; format: cell-based
T4 construct: The minimal FRB domain comprises amino acids 2025-2114 of human mTor; expressed in transfected cells; host or cells: COS-1 cells, electroporated with pBJ5-FRBVP, pBJ5-GF3E and pG5IL2SX
Text: as §2, §3

T4 sequence (P42345 2025-2114): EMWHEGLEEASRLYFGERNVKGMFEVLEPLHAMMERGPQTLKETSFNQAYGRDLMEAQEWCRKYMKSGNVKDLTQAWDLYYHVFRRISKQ
T4 sequence (P62942 whole entry, the tested form may be a part): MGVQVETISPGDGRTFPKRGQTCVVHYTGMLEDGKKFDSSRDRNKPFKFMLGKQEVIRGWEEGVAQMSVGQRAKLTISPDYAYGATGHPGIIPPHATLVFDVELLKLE
Chain of GSK-3βFRB* (P42345 2025-2114 K2095P/T2098L/W2101F): as the sequence (P42345 2025-2114) above, with K71P, T74L, W77F counted along it
Chain of GSK-3βFRB* (P26883 2-108): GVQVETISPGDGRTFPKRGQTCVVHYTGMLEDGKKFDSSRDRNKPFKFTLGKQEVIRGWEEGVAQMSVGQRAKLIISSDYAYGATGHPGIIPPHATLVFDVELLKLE
T2 sequence (P42345 2025-2114 K2095P/T2098L/W2101F): as the sequence (P42345 2025-2114) above, with K71P, T74L, W77F counted along it
T2 sequence (P62942 whole entry, the tested form may be a part): as the sequence (P62942 whole entry, the tested form may be a part) above
T3 sequence (P42345 2025-2114 T2098L): as the sequence (P42345 2025-2114) above, with T74L counted along it
T3 sequence (P62942 whole entry, the tested form may be a part): as the sequence (P62942 whole entry, the tested form may be a part) above
T1 sequence (P42345 2025-2114 T2098L/W2101F): as the sequence (P42345 2025-2114) above, with T74L, W77F counted along it
T1 sequence (P62942 whole entry, the tested form may be a part): as the sequence (P62942 whole entry, the tested form may be a part) above

Q: For “C20-(R or S)-methallylrapamycin [C20-MaRap]”, which EC50 (KLF) is on record?
A: The EC50 was 7.8 nM.

Q: What about the Kd (FRB*; FRB*) of the same substance?
A: Its Kd is 3.1 nM.

Q: And the EC50 (FRB*; FRB*(PLF)-VP16, ±95% confidence intervals)?
A: The EC50 was 3.1 ± 0.36 nM.

Q: What about the “GSK-3βFRB* levels” value (GSK-3βFRB*; GSK-3βFRB*/FRB* MEFs, 36 hour treatment, 100 nM) of the same substance?
A: The value was “restored GSK-3βFRB* levels”.

Q: What about the “effect on wild-type GSK-3β, β-catenin, or HSP-90 expression” value (GSK-3βFRB*; MEFs) of the same substance?
A: The value was “neither drug had an effect”.

Q: What about the “stabilization in fibroblasts lacking detectable FKBP12 expression” value (GSK-3βFRB*; doubly homozygous GSK-3βFRB* and FKBP12IM, 100 nM 36 hours) of the same substance?
A: Its value is “complete loss of C20-MaRap-induced stabilization”.

Q: What about the “time of half maximal stabilization” value (GSK-3βFRB*; heterozygous MEFs, 100 nM) of the same substance?
A: The value was 8 to 12 h.

Q: What about the “time to complete stabilization” value (GSK-3βFRB*; heterozygous MEFs, 100 nM) of the same substance?
A: Its value is “approximately 24 hours”.

Q: What about the “improvement of affinity of KLW over wild-type” value (KLW; KLW versus wild-type FRB) of the same substance?
A: Its value is “about 5 fold”.

Q: What about the EC50 (KLW; single mutation Thr2098 to Leu, read-out: affinity, KLW) of the same substance?
A: The EC50 was 22 nM.

Q: What about the “overt effect on mother and embryos” value (embryos) of the same substance?
A: The value was “Neither the mother nor the embryos were overtly affected”.

Q: And the Kd (FRB; wild-type FRB)?
A: The Kd was greater than 200 nM.

Q: And the EC50 (FRB; wild-type FRB(KTW)-VP16, ±95% confidence intervals)?
A: Its EC50 is 226 nM and > 200 nM.
